Results on 20 compounds are retold here after PubChem BioAssay AID248 (DTP/NCI, 2004).

Values joined by “and” are separate entries in the source; they are usually repeats but may differ in a detail not shown here. Equal values may be shown once. Inconclusive results and toxic doses are left out.

For this assay, the system named is L1210 leukemia ip in BDF1 mice, survival T/C. Briefly: NCI In Vivo Anticancer Drug Screen. Data for tumor model L1210 Leukemia (intraperitoneal) in B6D2F1 (BDF1) mice. The following applies: higher = longer survival. Summed up: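 Tumor cells were implanted, animals were treated, and survival was followed. The result divides the treated measurement by the vehicle-control measurement.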

Where [1] appears, read: endpoint: mean survival time, dose: 100.0 mg/kg/injection, schedule: Q04DX003 (ip), vehicle: saline.
Setting [2] is: endpoint: mean survival time, dose: 200.0 mg/kg/injection, schedule: Q04DX003 (ip), vehicle: saline.
The mark [3] stands for this setting: endpoint: mean survival time, dose: 400.0 mg/kg/injection, schedule: Q04DX003 (ip), vehicle: saline.
Setting [4] is: endpoint: mean survival time, dose: 100.0 mg/kg/injection, schedule: Q01DX009 (ip), vehicle: saline with Tween-80.
Where [5] appears, read: endpoint: mean survival time, dose: 200.0 mg/kg/injection, schedule: Q01DX009 (ip), vehicle: saline with Tween-80.
[6] abbreviates: endpoint: mean survival time, dose: 400.0 mg/kg/injection, schedule: Q01DX009 (ip), vehicle: saline with Tween-80.
Setting [7] is: endpoint: mean survival time, dose: 100.0 mg/kg/injection, schedule: Q04DX003 (ip), vehicle: saline with Tween-80.
Setting [8] is: endpoint: mean survival time, dose: 200.0 mg/kg/injection, schedule: Q04DX003 (ip), vehicle: saline with Tween-80.
[9] abbreviates: endpoint: mean survival time, dose: 400.0 mg/kg/injection, schedule: Q04DX003 (ip), vehicle: saline with Tween-80.
Setting [10] is: endpoint: mean survival time, dose: 100.0 mg/kg/injection, schedule: Q04DX003 (ip), vehicle: Klucel (hydroxypropylcellulose) (HPC).
The mark [11] stands for this setting: endpoint: mean survival time, dose: 200.0 mg/kg/injection, schedule: Q04DX003 (ip), vehicle: Klucel (hydroxypropylcellulose) (HPC).
Where [12] appears, read: endpoint: mean survival time, dose: 400.0 mg/kg/injection, schedule: Q04DX003 (ip), vehicle: Klucel (hydroxypropylcellulose) (HPC).
Where [13] appears, read: endpoint: mean survival time, dose: 100.0 mg/kg/injection, schedule: Q01DX009 (ip), vehicle: Klucel (hydroxypropylcellulose) (HPC).
The mark [14] stands for this setting: endpoint: mean survival time, dose: 200.0 mg/kg/injection, schedule: Q01DX009 (ip), vehicle: Klucel (hydroxypropylcellulose) (HPC).
The mark [15] stands for this setting: endpoint: mean survival time, dose: 50.0 mg/kg/injection, schedule: Q01DX009 (ip), vehicle: Klucel (hydroxypropylcellulose) (HPC).
The mark [16] stands for this setting: endpoint: mean survival time, dose: 100.0 mg/kg/injection, schedule: Q01DX001 (ip), vehicle: Klucel (hydroxypropylcellulose) (HPC).
The mark [17] stands for this setting: endpoint: mean survival time, dose: 400.0 mg/kg/injection, schedule: Q01DX001 (ip), vehicle: Klucel (hydroxypropylcellulose) (HPC).

In the case of `CN(C)N=Nc1cccc(C(N)=O)c1`, the T/C (endpoint: mean survival time, dose: 5.0 mg/kg/injection, schedule: Q01DX009 (ip), vehicle: Klucel (hydroxypropylcellulose) (HPC)) was 104 % of control; the T/C (endpoint: mean survival time, dose: 10.0 mg/kg/injection, schedule: Q01DX009 (ip), vehicle: Klucel (hydroxypropylcellulose) (HPC)) was 115 % of control; the T/C (endpoint: mean survival time, dose: 20.0 mg/kg/injection, schedule: Q01DX009 (ip), vehicle: Klucel (hydroxypropylcellulose) (HPC)) was 121 % of control; the T/C (endpoint: median survival time, dose: 39.0 mg/kg/injection, schedule: Q01DX009 (ip), vehicle: steriod suspending solution) is 150 % of control; the T/C (endpoint: median survival time, dose: 65.0 mg/kg/injection, schedule: Q01DX001 (ip), vehicle: steriod suspending solution) is 105 % of control; the T/C (endpoint: median survival time, dose: 65.0 mg/kg/injection, schedule: Q01DX009 (ip), vehicle: steriod suspending solution) was 95 % of control. Moreover, the T/C by setting is: (endpoint: median survival time, dose: 108.0 mg/kg/injection, schedule: Q01DX001 (ip), vehicle: steriod suspending solution) 120 % of control; (endpoint: median survival time, dose: 180.0 mg/kg/injection, schedule: Q04DX003 (ip), vehicle: steriod suspending solution) 105 % of control.
With `CCOCCC(O)CC` (stereo unspecified), the T/C (endpoint: mean survival time, dose: 100.0 mg/kg/injection, schedule: Q01DX009 (ip), vehicle: saline) is 98 % of control; the T/C under setting [1] was 90 % of control; the T/C (endpoint: mean survival time, dose: 200.0 mg/kg/injection, schedule: Q01DX009 (ip), vehicle: saline) was 98 % of control; the T/C under setting [2] is 88 % of control; the T/C (endpoint: mean survival time, dose: 400.0 mg/kg/injection, schedule: Q01DX009 (ip), vehicle: saline) was 98 % of control; the T/C under setting [3] was 89 % of control.
Turning to `CC(CO)(CO)NC(=O)Nc1ccccc1F`, the T/C was 113 % of control under setting [4], 103 % of control under setting [5] and 101 % of control under setting [6].
On to `ClCCN(CCCl)CCCNc1cc(-c2ccc(Cl)cc2)nc2cc(Cl)ccc12`, for which the T/C is 101 % of control (endpoint: mean survival time, dose: 5.0 mg/kg/injection, schedule: Q01DX001 (ip), vehicle: saline); 101 % of control (endpoint: mean survival time, dose: 10.0 mg/kg/injection, schedule: Q01DX001 (ip), vehicle: saline); 109 % of control (endpoint: mean survival time, dose: 20.0 mg/kg/injection, schedule: Q01DX001 (ip), vehicle: saline); 104 % of control (endpoint: mean survival time, dose: 40.0 mg/kg/injection, schedule: Q01DX001 (ip), vehicle: saline); 92 % of control (endpoint: mean survival time, dose: 80.0 mg/kg/injection, schedule: Q01DX001 (ip), vehicle: saline); 106 % of control (endpoint: mean survival time, dose: 200.0 mg/kg/injection, schedule: Q01DX001 (ip), vehicle: saline).
As for `COc1cc(Oc2c(OC)cc(/C(C)=N/O)cc2OC)cc(OC)c1OC`, the T/C reads like this: under setting [7], 105 % of control; under setting [8], 92 % of control; under setting [9], 95 % of control.
`CCCCCCCCOC(=O)C1=NC=NC1=[N+]=[N-]`: the T/C is, setting by setting: (endpoint: mean survival time, dose: 5.0 mg/kg/injection, schedule: Q01DX001 (ip), vehicle: other) 107 % of control; (endpoint: mean survival time, dose: 10.0 mg/kg/injection, schedule: Q01DX001 (ip), vehicle: other) 110 % of control; (endpoint: mean survival time, dose: 20.0 mg/kg/injection, schedule: Q01DX001 (ip), vehicle: other) 104 % of control; (endpoint: mean survival time, dose: 40.0 mg/kg/injection, schedule: Q01DX001 (ip), vehicle: other) 101 % of control.
Turning to `O=C(CC(=O)c1ccc(Cl)cc1)NC(=O)c1ccccc1`, the T/C was 96 % of control (endpoint: mean survival time, dose: 100.0 mg/kg/injection, schedule: Q01DX001 (ip), vehicle: other); 91 % of control (endpoint: mean survival time, dose: 200.0 mg/kg/injection, schedule: Q01DX001 (ip), vehicle: other); 89 % of control (endpoint: mean survival time, dose: 400.0 mg/kg/injection, schedule: Q01DX001 (ip), vehicle: other).
Take `Clc1onc(-c2ccccc2)c1-c1ccccc1`: the T/C by setting is: under setting [4], 101 % of control; under setting [7], 107 % of control; under setting [5], 110 % of control; under setting [8], 90 % of control; under setting [6], 97 % of control; under setting [9], 91 % of control.
Regarding `COc1cc2c(c(OC)c1OC)c(=O)c1ccccc1n2C`, the T/C is, setting by setting: (endpoint: mean survival time, dose: 50.0 mg/kg/injection, schedule: Q01DX Z (ip), vehicle: carboxymethylcellulose (CMC)) 97 % of control; (endpoint: mean survival time, dose: 100.0 mg/kg/injection, schedule: Q01DX Z (ip), vehicle: carboxymethylcellulose (CMC)) 103 % of control; (endpoint: mean survival time, dose: 200.0 mg/kg/injection, schedule: Q01DX Z (ip), vehicle: carboxymethylcellulose (CMC)) 101 % of control.
As to `O=C(O)CCc1c2ccc(=O)cc-2oc2cc(O)ccc12`, the T/C reads like this: under setting [10], 91 % of control; under setting [11], 91 % of control; under setting [12], 92 % of control.
As for `Cc1c(Cl)cccc1NC(=O)Nc1cccc(O)c1`, the T/C was 104 % of control and 89 % of control under setting [4]; 97 % of control and 100 % of control (endpoint: mean survival time, dose: 100.0 mg/kg/injection, schedule: Q04DX002 (ip), vehicle: saline with Tween-80); 101 % of control under setting [7]; 95 % of control and 97 % of control under setting [5]; 93 % of control and 89 % of control (endpoint: mean survival time, dose: 200.0 mg/kg/injection, schedule: Q04DX002 (ip), vehicle: saline with Tween-80); 100 % of control under setting [8]. In addition, the T/C runs as follows: under setting [6], 93 % of control and 90 % of control; (endpoint: mean survival time, dose: 400.0 mg/kg/injection, schedule: Q04DX002 (ip), vehicle: saline with Tween-80) 93 % of control and 94 % of control; under setting [9], 97 % of control.
For the compound `O=[N+]([O-])c1ccc(NN(c2ccccc2)c2ccccc2)c([N+](=O)[O-])c1`, the T/C is 98 % of control under setting [10], 97 % of control under setting [11] and 90 % of control under setting [12].
In the case of `CCC(=O)OC1CCC2C3CCC4=CC(=O)CCC4(C)C3CCC12C` (stereo unspecified), the T/C (endpoint: mean survival time, dose: 100.0 mg/kg/injection, schedule: Q01DX001 (ip), vehicle: carboxymethylcellulose (CMC)) is 107 % of control; the T/C (endpoint: mean survival time, dose: 200.0 mg/kg/injection, schedule: Q01DX001 (ip), vehicle: carboxymethylcellulose (CMC)) is 96 % of control; the T/C (endpoint: mean survival time, dose: 400.0 mg/kg/injection, schedule: Q01DX001 (ip), vehicle: carboxymethylcellulose (CMC)) was 96 % of control.
With `CCOC(=O)CCC1(C(=O)OC)C(=O)CCCCCCC1C(=O)OC` (stereo unspecified), the T/C under setting [7] was 103 % of control, the T/C under setting [8] is 99 % of control and the T/C under setting [9] was 96 % of control.
`CCCC1OC(=O)C(C)O1` (stereo unspecified): the T/C reads like this: under setting [13], 94 % of control; under setting [10], 105 % of control; under setting [14], 97 % of control; under setting [11], 100 % of control; under setting [12], 103 % of control.
`NC(=O)NCC(=O)O`: the T/C by setting is: (endpoint: mean survival time, dose: 50.0 mg/kg/injection, schedule: Q01DX001 (ip), vehicle: Klucel (hydroxypropylcellulose) (HPC)) 96 % of control; under setting [15], 91 % of control; under setting [16], 100 % of control; under setting [13], 100 % of control; (endpoint: mean survival time, dose: 200.0 mg/kg/injection, schedule: Q01DX001 (ip), vehicle: Klucel (hydroxypropylcellulose) (HPC)) 100 % of control; under setting [14], 96 % of control. Also, the T/C under setting [17] was 94 % of control.
As to `CC1CNC2C(C)C3C(CC4C5CCC6CC(N=Cc7ccccc7)C(O)CC6(C)C5CCC43C)OC2(O)C1` (stereo unspecified), the T/C reads like this: under setting [16], 87 % of control; under setting [17], 91 % of control.
For `CCC(=O)NC1Cc2cc(C)cc(C)c21` (stereo unspecified), the T/C (endpoint: mean survival time, dose: 25.0 mg/kg/injection, schedule: Q04DX002 (ip), vehicle: Klucel (hydroxypropylcellulose) (HPC)) is 113 % of control; the T/C (endpoint: mean survival time, dose: 50.0 mg/kg/injection, schedule: Q04DX002 (ip), vehicle: Klucel (hydroxypropylcellulose) (HPC)) was 92 % of control; the T/C (endpoint: mean survival time, dose: 100.0 mg/kg/injection, schedule: Q04DX002 (ip), vehicle: Klucel (hydroxypropylcellulose) (HPC)) was 100 % of control.
For the compound `CNC(=O)C(C)(C)Br`, the T/C under setting [1] is 105 % of control, the T/C under setting [2] is 109 % of control and the T/C under setting [3] was 107 % of control.
`Cc1cc(C(=O)NNCc2ccccc2)no1`: the T/C is, setting by setting: (endpoint: mean survival time, dose: 12.5 mg/kg/injection, schedule: Q01DX009 (ip), vehicle: Klucel (hydroxypropylcellulose) (HPC)) 102 % of control; (endpoint: mean survival time, dose: 25.0 mg/kg/injection, schedule: Q01DX009 (ip), vehicle: Klucel (hydroxypropylcellulose) (HPC)) 96 % of control; under setting [15], 97 % of control.
